Measurements published in Sander's compilation of Henry's law constants (doi:10.1016/j.atmosenv.2016.10.009).

experiment: Henry solubility constant Hcp at 298.15 K (mol/(m3 Pa)); details: reference: Odabasi and Adali (2016)

Row | Compound | Henry solubility constant Hcp
1 | Clc1cc2c(Cl)ccc(Cl)c2c(Cl)c1Cl [1,2,3,5,8-pentachloronaphthalene] | 0.17
2 | Clc1cc2c(Cl)cc(Cl)c(Cl)c2c(Cl)c1Cl [1,2,3,5,7,8-hexachloronaphthalene] | 0.43
3 | Clc1cc(Cl)c2c(Cl)ccc(Cl)c2c1Cl [1,2,4,5,8-pentachloronaphthalene] | 0.26
4 | Clc1cc(Cl)c2c(Cl)cccc2c1Cl [1,2,4,5-tetrachloronaphthalene] | 0.15
5 | Clc1cc(Cl)c2c(Cl)c(Cl)ccc2c1Cl [1,2,4,5,6-pentachloronaphthalene] | 0.14
6 | Clc1cc2c(Cl)c(Cl)c(Cl)c(Cl)c2c(Cl)c1Cl [1,2,3,4,5,6,7-heptachloronaphthalene] | 3.6
7 | Clc1cc(Cl)c2c(Cl)cc(Cl)c(Cl)c2c1 [1,2,4,5,7-pentachloronaphthalene] | 0.089
8 | Clc1cc(Cl)c2c(Cl)c(Cl)cc(Cl)c2c1 [1,2,4,6,8-pentachloronaphthalene] | 0.1
9 | Clc1c(Cl)c(Cl)c2c(Cl)c(Cl)c(Cl)c(Cl)c2c1Cl [octachloronaphthalene] | 1.2
10 | Clc1ccc2c(Cl)c(Cl)c(Cl)c(Cl)c2c1Cl [1,2,3,4,5,6-hexachloronaphthalene] | 0.78
11 | Clc1c(Cl)c(Cl)c2c(Cl)ccc(Cl)c2c1Cl [1,2,3,4,5,8-hexachloronaphthalene] | 0.93
12 | Clc1ccc2c(Cl)c(Cl)c(Cl)c(Cl)c2c1 [1,2,3,4,6-pentachloronaphthalene] | 0.078
13 | Clc1cc(Cl)c2c(Cl)c(Cl)c(Cl)c(Cl)c2c1Cl [1,2,3,4,5,6,8-heptachloronaphthalene] | 2.4

More lines, now with the values ahead:

Row | Henry solubility constant Hcp | Compound
14 | 0.35 | Clc1ccc(Cl)c2c(Cl)ccc(Cl)c12 [1,4,5,8-tetrachloronaphthalene]
15 | 0.17 | Clc1ccc2c(Cl)c(Cl)ccc2c1 [1,2,6-trichloronaphthalene]
16 | 0.11 | Clc1ccc2c(Cl)cccc2c1Cl [1,2,5-trichloronaphthalene]
17 | 0.22 | Clc1ccc(Cl)c2c(Cl)cccc12 [1,4,5-trichloronaphthalene]
18 | 0.071 | Clc1cc(Cl)c2cccc(Cl)c2c1 [1,3,5-trichloronaphthalene]
19 | 0.17 | Clc1ccc2c(Cl)cc(Cl)c(Cl)c2c1Cl [1,2,4,7,8-pentachloronaphthalene]
